Results published in patent US20030224942A1, “Alkylamino-1,3,5-triazines, processes for their preparation and their use as herbicides and plant growth regulators” (priority 2001, published 2003).

Tests used:
[1] = test system: Chenopodium spp., Papaver spp., Polygonum spp., Veronica spp. or Viola spp.; test: Post-emergence effect on weeds (greenhouse pot test, visual scoring); format: in vivo, monocotyledonous and dicotyledonous weeds; settings: treated at three-leaf stage; visual scoring after about 3 to 4 weeks; application rate of 0.5 kg and less of active substance per hectare
[2] = test system: Cyperus spp., Echinochloa spp., Digitaria spp., Sagitaria spp. and Scirpus spp.; test: Action on harmful plants in rice (paddy rice conditions, visual scoring); format: in vivo, typical rice weeds (gramineous and broad-leaved); settings: applied into the dammed water, visual scoring about three weeks after application
Summary of the method: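 Under paddy conditions with 2-3 cm dammed water, transplanted and sown rice plus weeds were treated at three-leaf stage (E. crus-galli at 1.5 leaves). Pots stayed in greenhouse under optimum growth conditions for the test period, with visual assessment of damage.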

SMILES	herbicidal activity post-emergence against harmful plants [1]	herbicidal activity against harmful plants which are typical for rice crops [2]
CC(F)c1nc(N)nc(NC(C)c2ccc(C3CC3)cc2)n1 (stereo not shown) [Product P22.1604]	very good herbicidal activity	very good herbicidal activity
C#Cc1cccc(C(C)Nc2nc(N)nc(CC)n2)c1 (stereo not shown) [Product P7.1579]	very good herbicidal activity	very good herbicidal activity
C#Cc1c(F)cc(CNc2nc(N)nc(CC)n2)cc1F [Product P6.352]	very good herbicidal activity	very good herbicidal activity
C#Cc1cccc(C(C)Nc2nc(C)nc(N)n2)c1 (stereo not shown) [Product P2.1579]	very good herbicidal activity	very good herbicidal activity
CC(C)(F)c1nc(N)nc(NC(c2ccc(C(F)=C(F)F)cc2)C2CC2)n1 (stereo not shown) [Product P19.1568]	very good herbicidal activity	very good herbicidal activity
CC(C)(F)c1nc(N)nc(NCc2ccc(F)c(C(F)=C(F)F)c2)n1 [Product P16.5]	very good herbicidal activity	very good herbicidal activity
CC(C)c1nc(N)nc(NC(C)c2ccc(F)c(C(F)=C(F)F)c2)n1 (stereo not shown) [Product P12.5]	very good herbicidal activity	very good herbicidal activity
Cc1nc(N)nc(NC(C)c2cccc(C3CC3)c2)n1 (stereo not shown) [Product P2.1603]	very good herbicidal activity	very good herbicidal activity
C#Cc1c(C)cc(C(C)Nc2nc(N)nc(CC)n2)cc1C (stereo not shown) [Product P7.348]	very good herbicidal activity	very good herbicidal activity
CCc1nc(N)nc(NCc2ccc(C(F)=C(F)F)cc2)n1 [Product P6.1568]	very good herbicidal activity	very good herbicidal activity
CCCCC#Cc1c(C)cc(C(C)Nc2nc(N)nc(C(C)(C)F)n2)cc1C (stereo not shown) [Product P17.728]	very good herbicidal activity	very good herbicidal activity
CCC(F)c1nc(N)nc(NCc2cccc(C3CC3)c2)n1 (stereo not shown) [Product P26.1603]	very good herbicidal activity	very good herbicidal activity
CC(F)c1nc(N)nc(NC(C)c2ccc(F)c(C(F)=C(F)F)c2)n1 (stereo not shown) [Product P22.5]	very good herbicidal activity	very good herbicidal activity
CC(F)c1nc(N)nc(NCc2ccc(C(F)=C(F)F)cc2)n1 (stereo not shown) [Product P21.1568]	very good herbicidal activity	very good herbicidal activity
CC(C)c1nc(N)nc(NC(C)c2ccc(C3CC3)cc2)n1 (stereo not shown) [Product P12.1604]	very good herbicidal activity	very good herbicidal activity
Cc1nc(N)nc(NC(C)c2cc(F)c(C3CC3)c(F)c2)n1 (stereo not shown) [Product P2.960]	very good herbicidal activity	very good herbicidal activity
CC#Cc1cccc(CNc2nc(N)nc(C(F)CC)n2)c1 (stereo not shown) [Product P26.1582]	very good herbicidal activity	very good herbicidal activity
